The values below come from patent publication US20030134859A1 (SANKYO COMPANY, LIMITED, priority 2000, published 2003).

In the first test the test system is Rat white adipocytes. In words: Inhibition of the differentiation of adipocytes (Oil Red O). As to conditions: 100 nM test compound; 5 days; Oil Red O ABS550; control = 100%, blank = 0%; Table 3. It is filed as cell-based. The procedure, abridged:
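Rat white preadipocytes, 5,000 cells/well, given differentiation medium with compound at 100 nM final (0.1% DMSO) for 5 days at 37 °C. Lipid stained with Oil Red O, eluted in DMSO, read at 550 nm; differentiation % relative to DMSO control (100%) and blank (0%).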
Consider “N-[4-(4-Methylbenzoylamino)phenyl]phenyl]-(2-chloro-5-nitrophenyl)carboxamide [Example 122]”, for which the “Rate of Differentiation (%)” value came to 78.4%. The same measure, in the same setting: as for “N-[4-(Benzenesulfonylaminophenyl)phenyl]-(2-chloro-5-nitrophenyl)carboxamide [Example 128]”, the figure is 35.4%; as for “N-[4-[4-(Pyrrolidin-1-ylamino)phenyl]phenyl]-(2-chloro-5-nitrophenyl)carboxamide [Example 171]”, 43.0%.

Still in this test, the particulars now being: Rattus norvegicus, Adipocyte, 120 h, 100 nM test compound; 5 days; Oil Red O ABS550; control = 100%, blank = 0%; Table 3; read-out: Rate of Differentiation (%).
`CCN(C)c1ccc(-c2ccc(NC(=O)c3cc([N+](=O)[O-])ccc3Cl)cc2)cc1` [Example 218, N-[4-[4-(N-Ethyl-N-methylamino)phenyl]phenyl]-(2-chloro-5-nitrophenyl)carboxamide]: the activity at 0.1 µM came to 31.7%. Take `O=C(Nc1ccc(-c2ccc(NC(=S)Nc3cccc(F)c3)cc2)cc1)c1cc([N+](=O)[O-])ccc1Cl` [Example 245, N-[4-[4-[(3-Fluorophenyl)aminothiocarbonylamino]phenyl]phenyl]-(2-chloro-5-nitrophenyl)carboxamide]: the activity at 0.1 µM is 36.1%. Same read-out and setting: the figure for `CCOC(=O)NC(=S)Nc1ccc(-c2ccc(NC(=O)c3cc([N+](=O)[O-])ccc3Cl)cc2)cc1` [Example 251, N-[4-[4-(Ethoxycarbonylaminothiocarbonylamino)phenyl]phenyl]-(2-chloro-5-nitrophenyl)carboxamide] is 39.9%; for `O=C(Nc1ccc(-c2ccc(NC(=S)Nc3ccccc3)cc2)cc1)c1cc([N+](=O)[O-])ccc1Cl` [Example 252, N-[4-[4-(Phenylaminothiocarbonylamino)phenyl]phenyl]-(2-chloro-5-nitrophenyl)carboxamide] it is 36.7%. On the same count and under the same terms, as for `O=C(Nc1ccc(-c2ccc(NC(=O)c3cc([N+](=O)[O-])ccc3Cl)cc2)cc1)Nc1ccccc1[N+](=O)[O-]` [Example 254, N-[4-[4-(2-Nitrophenylaminocarbonylamino)phenyl]phenyl]-(2-chloro-5-nitrophenyl)carboxamide], the figure is 52.8%. For the compound `O=C(NC(=S)NCCc1ccc(NC(=O)c2cc([N+](=O)[O-])ccc2Cl)cc1)c1ccccc1` [Example 271, N-[4-(2-Phenylcarbonylaminothiocarbonylaminoethyl)phenyl]-(2-chloro-5-nitrophenyl)carboxamide], the activity at 0.1 µM was determined as 45.4%.

For `CCS(=O)(=O)N(c1ccc(-c2ccc(NC(=O)c3cc([N+](=O)[O-])ccc3Cl)cc2)cc1)S(=O)(=O)CC` [Example 276, N-[4-[4-(N,N-Diethanesulfonylamino)phenyl]phenyl]-(2-chloro-5-nitrophenyl)carboxamide], the activity at 0.1 µM came out at 14.9%.
